Data reported in patent US7888368B2, “Treatment of drug-resistant tumors” (Sigma-Tau Industrie Farmaceutiche Riunite S.p.A., priority 2005, dated 2011).
Changes are numbered by the printed parent chain.

How the values were obtained:
[1] = system: DU145RC1 camptothecin-resistant prostate carcinoma; assay: Antitumor activity on DU145RC1 resistant tumor xenograft; format: in vivo, human; settings: DU145 RC1 s.c. in nude athymic mice, q4d × 5
From the text: (§1) Using a q4d dosing schedule repeated for 3-5 doses, ST1968 was compared to irinotecan or other known chemotherapeutic agents against different human tumor models (Table 2), including A2780/ADR multidrug-resistant ovarian carcinoma which overexpresses PgP glycoprotein, A2780/DDP platinum-resistant ovarian carcinoma and DU145RC1 camptothecin-resistant prostate carcinoma which was previously selected by continuous exposure of the parental sensitive DU145 to 9-nitro-camptothecin (Urasaki Y et al., 2001, Cancer Res 61, 1964-9). On this selected tumor cell line, a Topoisomerase I mutation which changes the arginine 364 codon to histidine (R364H) was found. The 364H point mutation was located in the highly conserved core, a region of Topoisomerase I within the Topoisomerase I amino acid residues 361-364 critical for camptothecin resistance. Moreover, this mutation site is close to the catalytic tyrosine. The resistance of the Topoisomerase I/R364H is probably attributable to the loss of a critical H-bond between R364 and camptothecin E-ring lactone moiety.
(§2) Exponentially growing tumor cells were injected s.c. into nude athymic mice. The number of tumor cells was previously chosen by a growth curve. Mice were housed inside cages of makrolon (33.2×15×13 cm) with stainless steel cover-feed and sterilized and dust-free bedding cobs. Animals were housed under a light-dark cycle, keeping temperature and humidity constant. Parameters of the animal rooms were assessed as follows: 22±2° C. temperature, 55±10% relative humidity, about 15-20 filtered air changes/hour and 12 hour circadian cycle of artificial light (7 a.m., 7 p.m.). At request, the environmental conditions were monitored and the data are retained in Animal Housing Archives. Drinking water was supplied ad libitum. Each mouse was offered daily a complete pellet diet (GLP 4RF21, Mucedola) throughout the study. The analytical certificates of animal food and water are retained at Sigma-Tau premises. All animals were weighed before starting the experiment and were subdivided into the different dosage groups. Each cage was identified by a paper tag indicating: cage number, group, date of tumor injection, starting date of treatment, name of the test item, dose and route of administration, date of sacrifice.
(§3) Tumor growth was followed by biweekly measurements of tumor diameters with a Vernier caliper. Tumor volume (TV, mm^3) was calculated as: [length (mm)×width (mm)^2]/2, where the width and the length are the shortest and the longest diameters of each tumor, respectively.
(§4) The efficacy of the drug treatment was assessed as: a) Tumor volume inhibition (TVI %) in treated versus control mice, calculated as: 100−[(mean tumor volume of treated animals/mean tumor volume of control animals)×100]; b) LCK (log10 cell kill) calculated by the formula LCK=(T−C)/3.32×DT, where T and C are the mean times (days) required for treated (T) and control (C) tumor, respectively, to reach 1000 mm^3, and DT is the doubling time of control tumors; CR meaning no evidence of tumor lasting for at least 10 days.

[2] = system: A2780/ADR multidrug-resistant ovarian carcinoma; assay: Antitumor activity on A2780/ADR resistant tumor xenograft; format: in vivo, human; settings: A2780/ADR s.c. in nude athymic mice, q4d × 4
From the text: as §1, §2, §3, §4

[3] = system: A2780/DDP platinum-resistant ovarian carcinoma; assay: Antitumor activity on A2780/DDP resistant tumor xenograft; format: in vivo, human; settings: A2780/DDP s.c. in nude athymic mice, q4d × 3
From the text: as §1, §2, §3, §4

[4] = target: T1, human DNA topoisomerase I mutant YCpGAL1htop1K720E (Homo sapiens, UniProt P11387, K720E); assay: In vivo spot test, yeast transformed with human DNA topoisomerase I mutant K720E; format: cell-based; settings: Saccharomyces cerevisiae EKY2, 2% galactose, drug 45 μM, 48-72 h at 30° C.
T1 sequence (P11387 1-765 K720E): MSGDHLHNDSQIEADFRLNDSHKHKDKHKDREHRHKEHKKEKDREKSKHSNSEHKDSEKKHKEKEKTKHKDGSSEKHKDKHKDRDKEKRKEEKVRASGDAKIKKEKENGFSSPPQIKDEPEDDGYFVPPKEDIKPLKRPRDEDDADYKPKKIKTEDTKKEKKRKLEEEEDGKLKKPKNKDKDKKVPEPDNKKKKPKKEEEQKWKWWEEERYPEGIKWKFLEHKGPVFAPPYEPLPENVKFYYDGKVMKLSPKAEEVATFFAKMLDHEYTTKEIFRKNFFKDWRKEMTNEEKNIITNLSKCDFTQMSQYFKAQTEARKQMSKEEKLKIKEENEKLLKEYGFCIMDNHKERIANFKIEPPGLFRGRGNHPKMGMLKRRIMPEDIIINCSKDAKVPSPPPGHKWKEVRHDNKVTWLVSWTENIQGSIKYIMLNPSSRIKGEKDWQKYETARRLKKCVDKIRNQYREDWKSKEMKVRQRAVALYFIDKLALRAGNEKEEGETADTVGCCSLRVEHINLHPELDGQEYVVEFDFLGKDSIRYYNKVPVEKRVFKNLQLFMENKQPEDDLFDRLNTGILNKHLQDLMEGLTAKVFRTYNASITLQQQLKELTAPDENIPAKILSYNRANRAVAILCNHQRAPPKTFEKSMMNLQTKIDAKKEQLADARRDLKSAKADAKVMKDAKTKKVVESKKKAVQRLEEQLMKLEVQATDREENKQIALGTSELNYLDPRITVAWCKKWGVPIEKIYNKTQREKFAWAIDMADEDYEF

[5] = system: DU145 sensitive prostate carcinoma; assay: Antitumor activity on DU145 tumor xenograft; format: in vivo, human; settings: DU145 s.c. in nude athymic mice, 35 iv mg/kg, q4d × 4
From the text: Using a q4d dosing schedule repeated for 3-5 doses, ST1968 was compared to irinotecan or other known chemotherapeutic agents against different human tumor models (Table 2), including A2780/ADR multidrug-resistant ovarian carcinoma which overexpresses PgP glycoprotein, A2780/DDP platinum-resistant ovarian carcinoma and DU145RC1 camptothecin-resistant prostate carcinoma which was previously selected by continuous exposure of the parental sensitive DU145 to 9-nitro-camptothecin (Urasaki Y et al., 2001, Cancer Res 61, 1964-9). On this selected tumor cell line, a Topoisomerase I mutation which changes the arginine 364 codon to histidine (R364H) was found. […]
Exponentially growing tumor cells were injected s.c. into nude athymic mice. […] Parameters of the animal rooms were assessed as follows: 22±2° C. temperature, 55±10% relative humidity, about 15-20 filtered air changes/hour and 12 hour circadian cycle of artificial light (7 a.m., 7 p.m.). At request, the environmental conditions were monitored and the data are retained in Animal Housing Archives. […]
Tumor growth was followed by biweekly measurements of tumor diameters with a Vernier caliper. Tumor volume (TV, mm^3) was calculated as: [length (mm)×width (mm)^2]/2, where the width and the length are the shortest and the longest diameters of each tumor, respectively. […]

[6] = target: T2, human DNA topoisomerase I wild type (YCpGAL1 hTOP1) (Homo sapiens, UniProt P11387); assay: In vivo spot test, yeast transformed with human DNA topoisomerase I wild type; settings: Saccharomyces cerevisiae EKY2, 2% galactose, drug 45 μM, 48-72 h at 30° C.
T2 sequence (P11387 1-765): T1 sequence (P11387 1-765 K720E) with E720K
Experimental: Before to transform the yeast cells with DNA (lithium acetate method), yeast was grown on solid medium. It was streaked on plates of 90 mm containing sterile solid medium (YPDA) (10 g yeast, 20 g peptone, 20 g dextrose, 0.7 g adenine, 20 g glucose, 20 g agar for liter). Colonies were grown after 48 h at 30° C. One day before the transformation, a single yeast colony of the strain to be transformed was inoculated in 5 ml of steril liquid YPDA (the medium above mentioned without agar). The colony was grown to saturation overnight under stirring at 30° C. The day after, 5 ml of saturated culture was diluted in 100 ml of YPDA liquid medium and grown at 30° C. to reach an optical density of 1.0 at 600 nm. Cells were centrifuged for 5 min at 4000×g at room temperature and the pellet was resuspended in 25 ml of a solution (T/E) containing 10 mM Tris-EDTA pH7.5, 1 mM EDTA and 100 mM lithium acetate. The yeast suspension was centrifuged for 5 min at 4000×g at room temperature. The pellet was resuspended in a fresh solution above described (about 500 μl) to obtain 2×10^9 cells/ml. To have the transformation, 200 μg of DNA carrier were mixed with 1 μg transforming DNA and 200 μl yeast cells in an eppendorf. Subsequently, 1.2 ml of a solution TE/lithium acetate containing 40% PEG were added and the yeast suspension was kept under stirring for 30 min at 30° C. A heat shock was performed by keeping the yeast suspension at 42° C. for 15 min. Subsequently it was centrifuged 5 sec at room temperature. Yeast was resuspended in TE buffer and spread up onto CM (complete minimal) dropout medium on plates. CM was previously prepared with 1.3 g of dropout powder containing different aminoacids without uracil, 1.7 g yeast nitrogen base without aminoacids and ammonium sulfate, 5 g ammonium sulfate, 20 g glucose and 20 of agar for liter). The plates were incubated at 30° C. until transformants appear.
To perform the in vivo spot test, the transformants were inoculated in 5 ml of steril liquid CM medium and grown overnight under stirring at 30° C. The day after a dilution of the yeast colonies was made to reach an optical density at 600 nm of 0.3. Starting from this first dilution, other serial dilutions (1:10, 1:100, 1:1000) were performed in plates of 96 well. 5 μl of each dilution were put on plates of 90 mm containing solid CM medium. For the control samples, 2% glucose or 2% galactose were added; for the camptothecin-derivatives treated samples, 2% galactose and the drugs at a concentration 45 μM were added. The yeast colonies were incubated at 30° C. for 48-72 h and analyzed macroscopically.

Q: For `CCc1c2c(nc3ccc(OC(=O)N4CCC(N5CCCCC5)CC4)cc13)-c1cc3c(c(=O)n1C2)COC(=O)[C@]3(O)CC` [irinotecan], which CR ([1]; 60 mg/kg) is on record?
A: 0/8

Q: And the LCK ([1]; 60 mg/kg)?
A: 0.8

Q: What about the TVI % ([1]; 60 mg/kg) of the same compound?
A: 45%

Q: With `N.N.O=C([O-])C1(C(=O)[O-])CCC1.[Pt+2]` [carboplatin] as the compound, how does the CR ([2]; 33.3 mg/kg) read?
A: 0/7

Q: And the LCK ([2]; 33.3 mg/kg)?
A: 0.6

Q: What about the TVI % ([2]; 33.3 mg/kg) of the same compound?
A: 62%

Q: What about the CR ([3]; 25 mg/kg) of the same compound?
A: 0/8

Q: And the LCK ([3]; 25 mg/kg)?
A: 0.5

Q: What about the TVI % ([3]; 25 mg/kg) of the same compound?
A: 26%

Q: `CC(=O)O[C@H]1C(=O)[C@@]2(C)[C@H]([C@H](OC(=O)c3ccccc3)[C@]3(O)C[C@H](OC(=O)[C@H](O)[C@@H](NC(=O)c4ccccc4)c4ccccc4)C(C)=C1C3(C)C)[C@]1(OC(C)=O)CO[C@@H]1C[C@@H]2O` [paclitaxel] was tested. Which CR ([2]; 16 mg/kg) did it give?
A: 0/8

Q: What about the LCK ([2]; 16 mg/kg) of the same compound?
A: 0.1

Q: And the TVI % ([2]; 16 mg/kg)?
A: 16%

Q: What about the CR ([3]; 15 mg/kg) of the same compound?
A: 6/6

Q: What about the LCK ([3]; 15 mg/kg) of the same compound?
A: 1.4

Q: And the TVI % ([3]; 15 mg/kg)?
A: 94%

Q: What does the source list for `CC[C@@]1(O)C(=O)OCc2c1cc1n(c2=O)Cc2cc3c(CN(C)C)c(O)ccc3nc2-1` [topotecan]?
A: CR ([2]; 10 mg/kg): 1/6; LCK ([2]; 10 mg/kg): 1.1; TVI % ([2]; 10 mg/kg): 85%; CR ([3]; 10 mg/kg): 1/8; LCK ([3]; 10 mg/kg): 1.2; TVI % ([3]; 10 mg/kg): 93%

Q: What does the source list for `CC[C@@]1(O)C(=O)OCc2c1cc1n(c2=O)Cc2c-1nc1ccccc1c2/C=N\OCCN` [ST1968, 7-(2-amino)ethoxyiminomethylcamptothecin]?
A: growth of the transformed YCpGAL1htop1K720E mutant [4]: able to inhibit the growth; CR ([2]; 15 mg/kg): 6/8; LCK ([2]; 15 mg/kg): 2.2; TVI % ([2]; 15 mg/kg): 99%; LCK ([2]; 30 mg/kg): 1.9; TVI % ([2]; 30 mg/kg): 100%; CR ([3]; 15 mg/kg): 8/8; LCK ([3]; 15 mg/kg): 6.3; TVI % ([3]; 15 mg/kg): 100%; CR ([3]; 30 mg/kg): 7/7; LCK ([3]; 30 mg/kg): >>6.3; TVI % ([3]; 30 mg/kg): 100%; CR ([1]; 30 mg/kg): 0/8; LCK ([1]; 30 mg/kg): 1.3; TVI % ([1]; 30 mg/kg): 65%; LCK [5]: 0.65; TVI % [5]: 66%; growth of the yeasts transformed with the DNA topoisomerase I wild type [6]: inhibit the growth

Q: With `CCC1(O)C(=O)OCc2c1cc1n(c2=O)Cc2c-1nc1ccccc1c2C=NOCCN1CCOCC1` (stereo not drawn) [ST1600, 7-[2-(4-morpholinyl)ethoxy]iminomethylcamptothecin] as the compound, how does the “growth of the yeasts transformed with the DNA topoisomerase I wild type” value (“growth of the yeasts transformed” for short) [6] read?
A: inhibit the growth

Q: Which “growth of the yeasts transformed” value [6] does the source give for `CC[C@@]1(O)C(=O)OCc2c1cc1n(c2=O)Cc2cc3ccccc3nc2-1` [camptothecin] here?
A: inhibit the growth

Q: Which “growth of the yeasts transformed” value [6] does the source give for `CC[C@@]1(O)C(=O)OCc2c1cc1n(c2=O)Cc2c-1nc1ccccc1c2/C=N/OC(C)(C)C` [ST1481, 7-t-butoxyiminomethylcamptothecin] here?
A: inhibit the growth

Q: For `CCC1(O)C(=O)OCc2c1cc1n(c2=O)Cc2c-1nc1ccccc1c2C=NOCCN(C)C` (stereo not drawn) [ST1969, 7-(2-dimethylamino)ethoxyiminomethylcamptothecin], which “growth of the transformed YCpGAL1htop1K720E mutant” value [4] is on record?
A: able to inhibit the growth

Q: And the “growth of the yeasts transformed” value [6]?
A: inhibit the growth

Q: Which “growth of the yeasts transformed” value [6] does the source give for `CCC1(O)C(=O)OCc2c1cc1n(c2=O)Cc2c-1nc1ccccc1c2C=NOCc1ccc(N)cc1` (stereo not drawn) [ST1976, 7-(4-amino)benzyloxyiminomethylcamptothecin] here?
A: inhibit the growth
